In paper PMC4840272 (Neoplasia (New York, N.Y.), 2016):
“And” between values parts separate entries of the source, which are not always exact repeats. Identical values can stand only once.

Experiments:
[1] = tested on: CL97 cells; assay: cells; assay type: cell-based, human; conditions: Homo sapiens, CL97, 72 h
[2] = tested on: CL141T cells; assay: cells; assay type: cell-based, human; conditions: Homo sapiens, 72 h
[3] = tissue distribution in SD rats; assay type: in vivo; conditions: 30 minutes after administration, 10 mg/kg, n = 6
[4] = target: topo I (Homo sapiens, UniProt P11387); assay: topo I activity assay with nuclear extracts of treated H460 cells; assay type: cell-based; conditions: H460 cells treated 72 hours, nuclear extract, plasmid relaxation
[5] = tested on: PC9 cells; assay: cells; assay type: cell-based, human; conditions: Homo sapiens, PC-9, 72 h
[6] = tested on: NTUB1/P; assay: cytotoxicity in multiple drug-resistant and cisplatin-resistant cells; assay type: cell-based
[7] = tested on: H1650 xenograft; assay: H1650 xenograft in nude mice; assay type: in vivo; conditions: i.v., BO-1978 40 mg/kg, gefitinib 10 mg/kg, daily for 5 consecutive days
[8] = tested on: H1975 cells; assay: cells; assay type: cell-based, human; conditions: Homo sapiens, NCI-H1975, 72 h
[9] = tested on: H460 cells; assay: modified comet assay of DNA ICLs; assay type: cell-based, human; conditions: 1, 5, and 10 μM, 2 hours
[10] = tested on: PC9 xenograft; assay: PC9 xenograft in nude mice; assay type: in vivo; conditions: i.v., BO-1978 40 mg/kg, gefitinib 10 mg/kg, daily for 5 consecutive days
[11] = tested on: MES-SA; assay: cytotoxicity in multiple drug-resistant and cisplatin-resistant cells; assay type: cell-based; conditions: Homo sapiens
[12] = tested on: CCRF-CEM; assay: as above; assay type: cell-based; conditions: Homo sapiens
[13] = tested on: H1975 xenograft; assay: H1975 xenograft in nude mice; assay type: in vivo; conditions: i.v., BO-1978 40 mg/kg, gefitinib 10 mg/kg, daily for 5 consecutive days
[14] = tested on: PC9/gef B4 cells; assay: cells; assay type: cell-based, human
[15] = tested on: CCRF/VBL; assay: cytotoxicity in multiple drug-resistant and cisplatin-resistant cells; assay type: cell-based
[16] = tested on: H1299 cells; assay: cells; assay type: cell-based, human; conditions: Homo sapiens, NCI-H1299, 72 h
[17] = tested on: KB; assay: cytotoxicity in multiple drug-resistant and cisplatin-resistant cells; assay type: cell-based; conditions: Homo sapiens
[18] = tested on: H460 cells; assay: cell cycle analysis by flow cytometry; assay type: cell-based, human; conditions: 1 to 4 μM, 24 to 72 hours
[19] = tested on: H460 xenograft; assay: H460 xenograft in nude mice; assay type: in vivo
[20] = tested on: MES-SA/dx5; assay: cytotoxicity in multiple drug-resistant and cisplatin-resistant cells; assay type: cell-based
[21] = tested on: 11 NSCLC cell lines; assay: cytotoxicity against batch of 11 NSCLC cell lines; assay type: cell-based; conditions: Homo sapiens, read-out: IC50 values against NSCLC cells (range)
[22] = tested on: A549 cells; assay: cells; assay type: cell-based, human; conditions: Homo sapiens, A549, 72 h
[23] = tested on: NTUB1; assay: cytotoxicity in multiple drug-resistant and cisplatin-resistant cells; assay type: cell-based
[24] = tested on: CL1-5 cells; assay: alamarBlue in vitro cytotoxicity assay; assay type: cell-based, human; conditions: Homo sapiens, CL1-5, 72 h
[25] = tested on: topo II; assay: topo II activity assay with nuclear extracts of treated H460 cells; assay type: cell-based, human; conditions: H460 cells treated 72 hours, nuclear extract, plasmid relaxation
[26] = stability in rat plasma; assay type: in vitro ADME
[27] = whole-blood pharmacokinetics in SD rats; assay type: in vivo
[28] = tested on: CL100 cells; assay: cells; assay type: cell-based, human; conditions: Homo sapiens, 72 h
[29] = tested on: H460 cells; assay: cells; assay type: cell-based, human; conditions: Homo sapiens, NCI-H460, 72 h
[30] = tested on: H1650-Luc cells; assay: orthotopic lung tumor model, IVIS; assay type: in vivo, nude mice; conditions: BO-1978 40 mg/kg, gefitinib 10 mg/kg, daily for 5 consecutive days
[31] = tested on: KB/vin10; assay: cytotoxicity in multiple drug-resistant and cisplatin-resistant cells; assay type: cell-based
[32] = tested on: H1650 cells; assay: cells; assay type: cell-based, human; conditions: Homo sapiens, NCI-H1650, 72 h
[33] = tested on: caspases 3 and 7; assay: Western blot of apoptotic executor proteins; assay type: cell-based, human; conditions: H460 cells
[34] = stability in culture medium; assay type: physicochemical
[35] = tested on: pEGFP-N1 plasmid DNA; assay: alkaline gel shift assay of DNA cross-linking; assay type: biochemical; conditions: 0.125 to 2 μM, 2 hours, 37°C
[36] = tested on: PC9/gef B4 xenograft; assay: PC9/gef B4 xenograft in nude mice; assay type: in vivo; conditions: i.v., BO-1978 40 mg/kg, gefitinib 10 mg/kg, daily for 5 consecutive days
[37] = acute toxicity LD50 in ICR mice; conditions: male, mouse, in vivo
[38] = tested on: γH2AX, DNA-PK, and Rad51; assay: Western blot of DNA damage response; assay type: cell-based, human; conditions: H460 cells, 1 to 4 μM, 24 hours
[39] = histopathological examination of major organs in ICR mice; assay type: in vivo; conditions: 40 mg/kg i.v., days 2 and 14, histopathology and blood tests
[40] = complete blood count and blood chemistry test in ICR mice; assay type: in vivo; conditions: 40 mg/kg i.v.
[41] = cited from earlier work
[42] = male, SD, rat, whole blood, iv, 10 mg/kg

Sequence of topo I (P11387 whole entry): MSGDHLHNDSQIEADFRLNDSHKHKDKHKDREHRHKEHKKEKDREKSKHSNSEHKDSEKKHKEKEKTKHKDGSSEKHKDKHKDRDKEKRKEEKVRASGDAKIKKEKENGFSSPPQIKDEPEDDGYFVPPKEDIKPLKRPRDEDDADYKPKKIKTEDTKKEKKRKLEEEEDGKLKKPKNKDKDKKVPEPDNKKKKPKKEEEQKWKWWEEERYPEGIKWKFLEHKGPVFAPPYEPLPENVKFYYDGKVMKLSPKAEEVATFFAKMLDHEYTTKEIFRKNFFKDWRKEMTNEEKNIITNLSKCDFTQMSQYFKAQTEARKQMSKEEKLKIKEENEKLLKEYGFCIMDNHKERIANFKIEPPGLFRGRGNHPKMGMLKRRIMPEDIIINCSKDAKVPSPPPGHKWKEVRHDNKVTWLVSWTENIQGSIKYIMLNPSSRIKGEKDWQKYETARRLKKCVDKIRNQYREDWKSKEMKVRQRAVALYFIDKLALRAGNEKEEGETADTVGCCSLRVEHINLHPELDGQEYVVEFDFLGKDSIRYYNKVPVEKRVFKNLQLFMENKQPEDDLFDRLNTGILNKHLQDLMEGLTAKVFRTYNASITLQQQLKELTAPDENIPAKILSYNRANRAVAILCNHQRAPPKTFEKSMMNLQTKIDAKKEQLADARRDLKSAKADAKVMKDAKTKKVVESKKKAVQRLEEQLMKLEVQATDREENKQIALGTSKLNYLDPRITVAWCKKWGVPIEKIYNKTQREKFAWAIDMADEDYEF

CCc1c(CO)c(CO)c2n1Cc1c(c3ccccc3n1C)C2 [BO-1978, [3-ethyl-6-methyl-6,11-dihydro-5H-indolizino[6,7-b]indole-1,2-diyl]dimethanol]
IC50 [1]: 1.25 ± 0.18 µM | IC50 [2]: 1.32 ± 0.47 µM | concentration in Blood [3]: 1.59 ± 0.48 μg/ml or μg/g | concentration in Brain [3]: 3.97 ± 0.96 μg/ml or μg/g | concentration in Heart [3]: 1.79 ± 0.72 μg/ml or μg/g | concentration in Kidney [3]: 2.19 ± 0.12 μg/ml or μg/g | concentration in Liver [3]: 10.71 ± 1.96 μg/ml or μg/g | concentration in Lung [3]: 3.13 ± 1.44 μg/ml or μg/g | concentration in Spleen [3]: 0.48 ± 0.08 μg/ml or μg/g | concentration at which topo I activity was significantly inhibited [4]: greater than 0.5 μM | IC50 [5]: 1.41 ± 0.37 µM | IC50 ([6]; NTUB1): 1.92 ± 0.39 µM | resistance factor ([6]; NTUB1/P vs NTUB1): 1.68 x | suppression of xenograft tumor growth [7]: 30% | IC50 [8]: 2.34 ± 0.18 µM | tail moment in X-ray irradiated H460 cells (DNA ICLs) [9]: dose-dependently induced shortened tail moments | suppression of xenograft tumor growth [10]: 55% | IC50 [11]: 0.77 ± 0.08 µM | IC50 [12]: 0.46 ± 0.12 µM | suppression of xenograft tumor growth [13]: 26% | IC50 ([14]; Homo sapiens, 72 h): 1.58 ± 0.33 µM | resistance factor of PC9/gef B4 to PC9 cells ([14]; IC50 ratio, number in brackets): 1.12 | IC50 [15]: 0.41 ± 0.03 µM | IC50 [16]: 3.02 ± 0.65 µM | IC50 [17]: 1.96 ± 0.39 µM | cell cycle interference [18]: S phase delay at 24 hours and then G2 arrest at 72 hours | body weight loss ([19]; H460 xenograft mice, BO-1978 40 mg/kg QDx5, cisplatin 6 mg/kg every 4 days x3): negligible | H460 xenograft tumor size suppressed/reduced to ([19]; i.v., BO-1978 40 mg/kg QDx5, cisplatin 6 mg/kg every 4 days x3): approximately 65% | maximal tolerant dose ([19]; nude mice, i.v., given for 5 consecutive days (QDx5)): 40 mg/kg | IC50 ([20]; Homo sapiens, MES-SA/Dx5): 0.47 ± 0.12 µM | resistance factor ([20]; MES-SA/dx5 vs MES-SA): 0.61 x | IC50 [21]: 1.06 to 3.5 µM | IC50 [22]: 3.15 ± 1.2 µM | IC50 [23]: 1.14 ± 0.32 µM | IC50 [24]: 1.47 ± 0.53 µM | concentration at which topo II activity was significantly inhibited [25]: greater than 0.5 μM | half-life [26]: 89.4 ± 5.62 h | systemic clearance as share of cardiac output of rats ([27]; cardiac output approximately 296 ml/min per kg): approximately 19% | systemic clearance ([27]; male SD rats, single i.v. 10 mg/kg): 56.24 ± 14.90 ml/min per kg | AUC(0-t) [27, 42]: 3140 ng·h/mL | C0 [27, 42]: 8630 ng/mL and 27.8 µM | MRT [27, 42]: 0.456 h | half-life [27, 42]: 0.392 ± 0.118 h | IC50 [28]: 1.51 ± 0.3 µM | IC50 [29]: 1.06 ± 0.11 µM | orthotopic growth of H1650-Luc cells [30]: effectively suppressed | IC50 ([31]; Homo sapiens, KB-VIN10): 1.56 ± 0.51 µM | resistance factor ([31]; KB/vin10 vs KB): 0.79 x | IC50 [32]: 3.5 ± 0.1 µM | cleavage of caspases 3 and 7 [33]: dose- and time-dependently induced cleavage of caspases 3 and 7 | half-life [34]: 36.8 ± 2.19 h | formation of DNA ICLs in plasmid DNA [35]: formed DNA ICLs | suppression of xenograft tumor growth [36]: 73% | LD50 [37]: 93.7 mg/kg | expression of γH2AX, DNA-PK, and Rad51 [38]: dose-dependently increased the expression levels | toxic effects in the major organs [39]: did not cause apparent toxic effects in the major organs except for slight and recoverable liver damage | ALP ([40]; 14 Days): 233.50 ± 36.74 U/l | ALT ([40]; 14 Days): 44.87 ± 19.72 U/l | AST ([40]; 14 Days): 86.14 ± 25.25 U/l | BASO ([40]; 14 Days): 0.09 ± 0.03 10^9/l | BUN ([40]; 14 Days): 23.95 ± 1.71 mg/dL | CRE ([40]; 14 Days): 0.17 ± 0.05 mg/dL | EOS ([40]; 14 Days): 0.12 ± 0.13 10^9/l | HCT ([40]; 14 Days): 44.02 ± 1.18% | HGB ([40]; 14 Days): 12.78 ± 0.42 g/dL | LYM ([40]; 14 Days): 2.86 ± 0.88 10^9/l | MCH ([40]; 14 Days): 16.38 ± 0.52 pg | MCHC ([40]; 14 Days): 29.05 ± 0.46 g/dL | MCV ([40]; 14 Days): 56.40 ± 1.69 fL | MONO ([40]; 14 Days): 0.11 ± 0.09 10^9/l | NEU ([40]; 14 Days): 0.82 ± 0.47 10^9/l | PLT ([40]; 14 Days): 958.00 ± 178.31 10^9/l | RBC ([40]; 14 Days): 7.81 ± 0.33 10^12/l | WBC ([40]; 14 Days): 4.00 ± 0.97 10^9/l | ALP ([40]; 48 Hours): 297.50 ± 72.11 U/l | ALT ([40]; 48 Hours): 156.25 ± 236.88 U/l | AST ([40]; 48 Hours): 220.27 ± 153.45 U/l | BASO ([40]; 48 Hours): 0.06 ± 0.03 10^9/l | BUN ([40]; 48 Hours): 19.48 ± 2.03 mg/dL | CRE ([40]; 48 Hours): 0.18 ± 0.15 mg/dL | EOS ([40]; 48 Hours): 0.05 ± 0.04 10^9/l | HCT ([40]; 48 Hours): 41.13 ± 1.95% | HGB ([40]; 48 Hours): 11.96 ± 0.53 g/dL | LYM ([40]; 48 Hours): 1.83 ± 1.17 10^9/l | MCH ([40]; 48 Hours): 16.75 ± 0.45 pg | MCHC ([40]; 48 Hours): 29.07 ± 0.40 g/dL | MCV ([40]; 48 Hours): 57.61 ± 1.27 fL | MONO ([40]; 48 Hours): 0.05 ± 0.04 10^9/l | NEU ([40]; 48 Hours): 0.45 ± 0.21 10^9/l | PLT ([40]; 48 Hours): 786.10 ± 90.60 10^9/l | RBC ([40]; 48 Hours): 7.14 ± 0.38 10^12/l | WBC ([40]; 48 Hours): 2.43 ± 1.19 10^9/l

Cn1c(CCCC(=O)O)nc2cc(N(CCCl)CCCl)ccc21 [bendamustine]
elimination t1/2 [41]: approximately 40 minutes
